In patent US20230011869A1 (Hoffmann-La Roche Inc., priority 2018, published 2023):
Where a name gives a salt, the structure may show the parent alone.

Each compound was assayed on Acinetobacter baumannii ATCC17978 (assay: Antimicrobial susceptibility testing: 90% growth inhibitory concentration (IC90) determination, Iso-Sensitest broth). Conditions: 90% growth inhibitory concentration, Acinetobacter baumannii ATCC17978, Iso-Sensitest broth, OD 600 nm over 16 h; read-out: ATCC17978 IC90.
Type: cell-based
How it was run: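 A. baumannii ATCC17978 grown in Iso-Sensitest broth across 10 compound concentrations at 35±2 °C.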

Row | SMILES | IC90 [nM]
1 | Cc1cc(Nc2nccn3c(-c4ccc(OCC#N)c(F)c4F)cnc23)ccc1C(=O)N1CCC(C(=O)N2CCNC(CO)C2)CC1 (centres unmarked) [Example 95, 2-[2,3-difluoro-4-[8-[4-[4-[3-(hydroxymethyl)piperazine-1-carbonyl]piperidine-1-carbonyl]-3-methyl-anilino]imidazo[1,2-a]pyrazin-3-yl]phenoxy]acetonitrile;2,2,2-trifluoroacetic acid] | 89
2 | N#CCOc1ccc(-c2cnc3c(Nc4ccc(C(=O)N5CCC(C(=O)OCC6CNCCN6)CC5)c(Cl)c4)nccn23)c(Cl)c1F (centres unmarked) [Example 96, piperazin-2-ylmethyl 1-[2-chloro-4-[[3-[2-chloro-4-(cyanomethoxy)-3-fluoro-phenyl]imidazo[1,2-a]pyrazin-8-yl]amino]benzoyl]piperidine-4-carboxylate trifluoroacetate] | 290
3 | Cc1cc(Nc2nccn3c(-c4ccc(OCC#N)c(F)c4Cl)cnc23)ccc1C(=O)N1CCC(C(=O)N2CCNC(CO)C2)CC1 (centres unmarked) [Example 97, 2-[3-chloro-2-fluoro-4-[8-[4-[4-[3-(hydroxymethyl)piperazine-1-carbonyl]piperidine-1-carbonyl]-3-methyl-anilino]imidazo[1,2-a]pyrazin-3-yl]phenoxy]acetonitrile trifluoroacetate] | 96
4 | N#CCOc1ccc(-c2cnc3c(Nc4ccc(C(=O)N5CCC(C(=O)OCC6CNCCN6)CC5)c(Cl)c4)nccn23)c(F)c1F (centres unmarked) [Example 98, piperazin-2-ylmethyl 1-[2-chloro-4-[[3-[4-(cyanomethoxy)-2,3-difluoro-phenyl]imidazo[1,2-a]pyrazin-8-yl]amino]benzoyl]piperidine-4-carboxylate trifluoroacetate] | 85
5 | CNCC(=O)NCC1CCN(C(=O)c2ccc(Nc3nccn4c(-c5ccc(OCC#N)c(F)c5F)cnc34)cc2C)CC1 [Example 102, N-[[1-[4-[[3-[4-(cyanomethoxy)-2,3-difluoro-phenyl]imidazo[1,2-a]pyrazin-8-yl]amino]-2-methyl-benzoyl]-4-piperidyl]methyl]-2-(methylamino)acetamide] | 140
6 | Cc1cc(Nc2nccn3c(-c4ccc(OC(C)(C)C#N)c(F)c4F)cnc23)ccc1C(=O)N1CCC(CN)CC1 [Example 105, 2-[4-[8-[4-[4-(aminomethyl)piperidine-1-carbonyl]-3-methyl-anilino]imidazo[1,2-a]pyrazin-3-yl]-2,3-difluoro-phenoxy]-2-methyl-propanenitrile; formic acid] | 3600
7 | Cc1cc(Nc2nccn3c(-c4ccc(Cl)cc4Cl)cnc23)ccc1C(=O)N1CCC(CN)CC1 [Example 108, (4-(aminomethyl)piperidin-1-yl)(4-((3-(2,4-dichlorophenyl)imidazo[1,2-a]pyrazin-8-yl)amino)-2-methylphenyl)methanone] | 1300
8 | Cc1cc(Nc2nccn3c(-c4ccc(OCC5CC5C#N)c(F)c4F)cnc23)ccc1C(=O)N1CCC(CN)CC1 (centres unmarked) [Example 114, 2-[[4-[8-[4-[4-(aminomethyl)piperidine-1-carbonyl]-3-methyl-anilino]imidazo[1,2-a]pyrazin-3-yl]-2,3-difluoro-phenoxy]methyl]cyclopropanecarbonitrile formate] | 410
9 | Cc1cc(Nc2nccn3c(-c4ccc(OC5(C#N)CC5)c(F)c4F)cnc23)ccc1C(=O)N1CCC(CN)CC1 [Example 115, 1-[4-[8-[4-[4-(aminomethyl)piperidine-1-carbonyl]-3-methyl-anilino]imidazo[1,2-a]pyrazin-3-yl]-2,3-difluoro-phenoxy]cyclopropanecarbonitrile formate] | 400

Continued, values first:

Row | IC90 [nM] | SMILES
10 | 140 | COc1ccc(-c2cnc3c(Nc4ccc(C(=O)N5CCC(C(=O)NCC(N)CO)CC5)c(C)c4)nccn23)cc1F (centres unmarked) [Example 101, N-(2-amino-3-hydroxypropyl)-1-(4-((3-(3-fluoro-4-methoxyphenyl)imidazo[1,2-a]pyrazin-8-yl)amino)-2-methylbenzoyl)piperidine-4-carboxamide hydrochloride]
11 | 150 | COc1ccc(-c2cnc3c(Nc4ccc(C(=O)N5CCC(CNC(C)=O)CC5)c(C)c4)nccn23)cc1 [Example 103, N-((1-(4-((3-(4-methoxyphenyl)imidazo[1,2-a]pyrazin-8-yl)amino)-2-methylbenzoyl)piperidin-4-yl)methyl)acetamide]
12 | 250 | COc1cc(F)c(-c2cnc3c(Nc4ccc(C(=O)N5CCC(CN)CC5)c(C)c4)nccn23)cc1F [Example 106, (4-(aminomethyl)piperidin-1-yl)(4-((3-(2,5-difluoro-4-methoxyphenyl)imidazo[1,2-a]pyrazin-8-yl)amino)-2-methylphenyl)methanone]
13 | 290 | COc1cc(F)c(-c2cnc3c(Nc4ccc(C(=O)N5CCC(CN)CC5)c(C)c4)nccn23)cc1Cl [Example 107, (4-(aminomethyl)piperidin-1-yl)(4-((3-(5-chloro-2-fluoro-4-methoxyphenyl)imidazo[1,2-a]pyrazin-8-yl)amino)-2-methylphenyl)methanone]
14 | 510 | COc1ccc(-c2cnc3c(Nc4ccc(C(=O)N5CCC(CN)CC5)c(C)c4)nccn23)c(Cl)c1 [Example 109, (4-(aminomethyl)piperidin-1-yl)(4-((3-(2-chloro-4-methoxyphenyl)imidazo[1,2-a]pyrazin-8-yl)amino)-2-methylphenyl)methanone]
15 | 420 | CCOc1ccc(-c2cnc3c(Nc4ccc(C(=O)N5CCC(CN)CC5)c(C)c4)nccn23)c(F)c1Cl [Example 110, (4-(aminomethyl)piperidin-1-yl)(4-((3-(3-chloro-4-ethoxy-2-fluorophenyl)imidazo[1,2-a]pyrazin-8-yl)amino)-2-methylphenyl)methanone formate]
16 | 4100 | Cc1cc(Nc2nccn3c(-c4cc(F)c(F)c(F)c4)cnc23)ccc1C(=O)N1CCC(CN)CC1 [Example 111, (4-(aminomethyl)piperidin-1-yl)(2-methyl-4-((3-(3,4,5-trifluorophenyl)imidazo[1,2-a]pyrazin-8-yl)amino)phenyl)methanone]
17 | 180 | CNCCNC(=O)C1CCN(C(=O)c2ccc(Nc3nccn4c(-c5ccc(OC)c(Cl)c5)cnc34)cc2C)CC1 [Example 112, 1-(4-((3-(3-chloro-4-methoxyphenyl)imidazo[1,2-a]pyrazin-8-yl)amino)-2-methylbenzoyl)-N-(2-(methylamino)ethyl)piperidine-4-carboxamide hydrochloride]
18 | 280 | COc1ccc(-c2cnc3c(Nc4ccc(C(=O)N5CCC(CN)CC5)c(C)c4)nccn23)c(Cl)c1Cl [Example 113, [4-(aminomethyl)-1-piperidyl]-[4-[[3-(2,3-dichloro-4-methoxy-phenyl)imidazo[1,2-a]pyrazin-8-yl]amino]-2-methyl-phenyl]methanone formate]
19 | 500 | CSc1ccc(-c2cnc3c(Nc4ccc(C(=O)N5CCC(CN)CC5)c(C)c4)nccn23)cc1F [Example 116, [4-(aminomethyl)-1-piperidyl]-[4-[[3-(3-fluoro-4-methylsulfanyl-phenyl)imidazo[1,2-a]pyrazin-8-yl]amino]-2-methyl-phenyl]methanone formate]

Same assay, conditions: Acinetobacter baumannii, ATCC17978, 16 h, read-out: ATCC17978 IC90, 90% growth inhibitory concentration, Acinetobacter baumannii ATCC17978, Iso-Sensitest broth, OD 600 nm over 16 h

Row | SMILES | IC90 [nM]
20 | COc1ccc(-c2cnc3c(Nc4ccc(C(=O)N5CCC(CN)CC5)c(C)c4)nccn23)c(Cl)c1F [Example 104, [4-(aminomethyl)-1-piperidyl]-[4-[[3-(2-chloro-3-fluoro-4-methoxy-phenyl)imidazo[1,2-a]pyrazin-8-yl]amino]-2-methyl-phenyl]methanone hydrochloride] | 180
